Target: PIK3CA (human) (UniProt P42336)
Assay: Assessment of PIK3CA Kinase Activity

Sequence of PIK3CA (human) (P42336 whole entry, looked up): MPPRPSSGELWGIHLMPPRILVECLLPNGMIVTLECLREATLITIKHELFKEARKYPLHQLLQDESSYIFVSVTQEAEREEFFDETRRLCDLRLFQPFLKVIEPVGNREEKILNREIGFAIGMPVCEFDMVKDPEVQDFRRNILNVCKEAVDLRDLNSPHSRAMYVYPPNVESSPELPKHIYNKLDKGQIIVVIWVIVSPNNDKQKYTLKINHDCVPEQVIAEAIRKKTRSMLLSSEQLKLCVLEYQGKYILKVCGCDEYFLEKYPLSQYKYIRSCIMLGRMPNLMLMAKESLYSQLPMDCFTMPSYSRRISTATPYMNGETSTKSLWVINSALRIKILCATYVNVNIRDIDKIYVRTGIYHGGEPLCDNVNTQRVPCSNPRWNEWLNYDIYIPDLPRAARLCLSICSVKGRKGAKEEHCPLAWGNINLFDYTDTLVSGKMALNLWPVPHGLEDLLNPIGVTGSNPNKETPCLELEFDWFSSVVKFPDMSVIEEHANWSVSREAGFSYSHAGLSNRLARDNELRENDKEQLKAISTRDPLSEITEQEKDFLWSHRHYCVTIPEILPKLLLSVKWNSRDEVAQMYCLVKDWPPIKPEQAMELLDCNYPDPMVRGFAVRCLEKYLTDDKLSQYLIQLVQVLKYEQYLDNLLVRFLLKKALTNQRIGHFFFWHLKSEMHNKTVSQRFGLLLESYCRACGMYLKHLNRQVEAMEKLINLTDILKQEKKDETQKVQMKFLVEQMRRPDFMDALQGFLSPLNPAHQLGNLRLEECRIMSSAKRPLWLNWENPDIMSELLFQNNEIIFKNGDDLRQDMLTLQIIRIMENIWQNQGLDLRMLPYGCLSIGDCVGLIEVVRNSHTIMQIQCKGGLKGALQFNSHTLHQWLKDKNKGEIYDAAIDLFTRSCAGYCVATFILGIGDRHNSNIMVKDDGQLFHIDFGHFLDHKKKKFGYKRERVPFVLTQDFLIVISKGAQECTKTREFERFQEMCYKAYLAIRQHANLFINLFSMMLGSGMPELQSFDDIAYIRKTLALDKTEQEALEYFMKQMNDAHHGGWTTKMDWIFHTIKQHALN

SMILES	IC50 [nM]
CC(C)n1ncnc1-c1cn2c(n1)-c1cnc(N3CC(O)C3)cc1OCC2	< 1000
CC(C)n1ncnc1-n1cc2c(n1)-c1ccc(C3CN(CC(N)=O)C3)cc1OCC2	< 1000
CC(C)n1ncnc1-n1cc2c(n1)-c1cc(C(=O)NCCO)ccc1OCC2	< 1000
CC(C)n1nccc1-c1cn2c(n1)-c1cnc(Cl)cc1OCC2	< 1000
CC(C)n1ncnc1-c1cn2c(n1)-c1cc(C(F)F)ncc1OCC2	< 1000
CC(C)n1ncnc1-c1cn2c(n1)-c1ccc(N[C@@H](C)C(N)=O)cc1OCC2	< 1000
CC(C)n1ncnc1-n1cc2c(n1)-c1cc(-c3cn[nH]c3)ccc1OCC2	< 1000
Nc1nc(-c2cn3c(n2)-c2cc(F)ccc2OCC3)n(CC(F)(F)F)n1	< 1000
CC(C)n1ncnc1-c1cc2n(n1)-c1cc(C(=O)N3CCC(O)CC3)ccc1OCC2	< 1000
CC(C)n1ncnc1-c1cn2c(n1)-c1ccc(C3CCN(C(=O)C(C)(C)O)CC3)cc1OCC2	< 1000
C[C@H](Nc1ccc2c(c1)OCCn1cc(-c3ncnn3CC(F)(F)F)nc1-2)C(N)=O	< 1000
Cc1nc(-c2ccc3c(c2)OCCn2cc(-c4ncnn4C(C)C)nc2-3)cn1CCOC1CCCCO1 (stereo not given)	< 1000
Cc1nc(-c2cn3c(n2)-c2cc(-c4ccc[nH]c4=O)ccc2OCC3)n(C(C)C)n1	< 1000
CC(C)n1nc(C2CC2)nc1-c1cn2c(n1)-c1ccc(Br)cc1OCC2	< 1000
CC(C)n1ncnc1-c1cn2c(n1)-c1ccc(-c3cnc(N)nc3)cc1OCC2	< 1000
COc1ccc(CNc2cc3c(cn2)-c2nc(-c4nc(C)nn4CC(F)(F)F)cn2CCO3)cc1OC	< 1000
Cc1nc(-c2cn3c(n2)-c2ccc(-c4cnn(C)c4)cc2OCC3)n(C(C)C)n1	< 1000
COc1ccc(CNc2cc3c(cn2)-c2nc(-c4ncnn4CC(F)(F)F)cn2CCO3)cc1OC	< 1000
OCCN1CCC(c2ccc3c(c2)-n2nc(-c4ncnn4CC(F)(F)F)cc2CCO3)CC1	< 1000
CC(C)n1ncnc1-c1cn2c(n1)-c1cnc(NCc3ccn[nH]3)cc1OCC2	< 1000
CCc1ccccc1-c1ccc2c(c1)OCCn1cc(-c3ncnn3C(C)C)nc1-2	< 1000
CC(C)n1nccc1-c1cn2c(n1)CCOc1cc(C(N)=O)cnc1-2	< 1000
CC(C)n1ncnc1-c1cn2c(n1)-c1ccc(C3CCOCC3)cc1OCC2	< 1000
Cc1ncc(-c2ccc3c(c2)OCCn2cc(-c4ncnn4C(C)C)nc2-3)[nH]1	< 1000

SMILES	IC50 [nM]
Clc1ccccc1-n1ncnc1-c1cn2c(n1)-c1cc(-c3ccccc3)ccc1OCC2	< 1000
Cc1nc(-c2cn3c(n2)-c2ccc(OCC(F)(F)F)cc2OCC3)n(C(C)C)n1	< 1000
CC(C)n1ncnc1-c1cn2c(n1)-c1cc(-c3ccc(=O)[nH]c3)ncc1OCC2	< 1000
CC(C)n1ncnc1-c1cn2c(n1)-c1cnc(N3CCC[C@H]3C(N)=O)cc1OCC2	< 1000
C[C@@H]1CN(C(=O)c2ccc3c(c2)-c2nc(-c4ncnn4CC(F)(F)F)cn2CCO3)C[C@H](C)N1	< 1000
COCc1nc(-c2cn3c(n2)-c2ccccc2OCC3)n(C(C)C)n1	< 1000
CC(C)n1ncnc1-c1cn2c(n1)-c1ccc(C3CN(CCS(C)(=O)=O)C3)cc1OCC2	< 1000
CC(C)n1ncnc1-c1cc2n(n1)-c1cc(C(=O)NC3CNC3)ccc1OCC2	< 1000
CO[C@@H]1C[C@@H](C(N)=O)N(c2cc3c(cn2)-c2nc(-c4ncnn4C(C)C)cn2CCO3)C1	< 1000
CC(C)n1ncnc1-c1cn2c(n1)-c1ccc([C@@H](C)C(N)=O)cc1OCC2	< 1000
Nc1cc2c(cn1)-c1nc(-c3ncnn3CC(F)(F)F)cn1CCO2	< 1000
O=C(c1ccc2c(c1)-c1nc(-c3ncnn3CC(F)(F)F)cn1CCO2)N1CCC(O)CC1	< 1000
Cc1nc(-c2cn3c(n2)-c2cc(-c4cc[nH]c(=O)c4)ccc2OCC3)n(C(C)C)n1	< 1000
CC(C)n1ccnc1-c1cn2c(n1)-c1cnc(N3CCC[C@H]3C(N)=O)cc1OCC2	< 1000
CC(C)n1ncnc1-c1cc2n(n1)-c1cc(C(=O)Nc3ccon3)ccc1OCC2	< 1000
CCN1CCC(c2ccc3c(c2)OCCn2cc(-c4ncnn4C(C)C)nc2-3)CC1	< 1000
CC(C)n1ncnc1-c1cn2c(n1)-c1ccc([C@H]3C[C@H]4CC[C@@H](C3)N4CC(N)=O)cc1OCC2	< 1000
CCN(CC)CCn1cc(-c2ccc3c(c2)OCCn2cc(-c4ncnn4C(C)C)nc2-3)cn1	< 1000
Cc1ncc(-c2ccc3c(c2)OCCn2cc(-c4ncnn4C(C)C)nc2-3)n1C	< 1000
CC(C)n1ncnc1-c1cn2c(n1)-c1ccc(-c3ccc(N)nc3)cc1OCC2	< 1000
CN(C)c1cc2c(cn1)-c1nc(-c3nc(CO)nn3CC(F)(F)F)cn1CCO2	< 1000
O=C(c1ccc2c(c1)-c1nc(-c3ncnn3CC(F)(F)F)cn1CCO2)N1CCN(CCO)CC1	< 1000
CC(C)n1ncnc1-c1cn2c(n1)-c1ccc(N3CC(F)(F)C[C@H]3C(N)=O)cc1OCC2	< 1000
Cc1nc(-c2cn3c(n2)-c2ccc(CCC(N)=O)cc2OCC3)n(C(C)C)n1	< 1000

SMILES	IC50 [nM]
Cc1nc(-c2cn3c(n2)-c2ccc(C4CCN(CC(=O)NC(C)C)CC4)cc2OCC3)n(C(C)C)n1	< 1000
FC(F)(F)Cn1ncnc1-c1cc2n(n1)-c1cc(CNc3cnccn3)ccc1OCC2	< 1000
CC(C)n1ncnc1-n1cc2c(n1)-c1cc(C(=O)Nc3cnn(CCO)c3)ccc1OCC2	< 1000
CC(C)n1ncnc1-c1cn2c(n1)-c1ccc(C3=NC(C)(C)CO3)cc1OCC2	< 1000
CCc1ccc2c(c1)OCCn1cc(-c3nc(C)nn3C(C)C)nc1-2	< 1000
CC(C)n1nccc1-c1cn2c(n1)-c1ccc(C(N)=O)cc1OCC2	< 1000
Nc1ccc2c(c1)OCCn1cc(-c3ncnn3CC(F)(F)F)nc1-2	< 1000
CC(C)n1ncnc1-c1cn2c(n1)-c1ccc(-c3cnn(CCO)c3)cc1OCC2	< 1000
CC(C)n1ncnc1-c1cn2c(n1)-c1ccc(C3CCN(C(C)(C)CO)CC3)cc1OCC2	< 1000
CC(C)n1ncnc1-c1cn2c(n1)-c1ccc(-c3ccccc3CO)cc1OCC2	< 1000
C[C@H](Oc1ccc2c(c1)OCCn1cc(-c3ncnn3C3CC3)nc1-2)C(N)=O	< 1000
OCCN1CC(c2ccc3c(c2)OCCc2cn(-c4ncnn4-c4ccc(F)cc4F)nc2-3)C1	< 1000
CC(C)n1ncnc1-c1cn2c(n1)-c1ccc(CC(=O)NO)cc1OCC2	< 1000
Cc1nc(-c2cn3c(n2)-c2ccc(C4CCN(C(C)(C)CO)CC4)cc2OCC3)n(C(C)C)n1	< 1000
CS(=O)(=O)CCN1CCC(c2ccc3c(c2)-n2nc(-c4ncnn4CC(F)(F)F)cc2CCO3)CC1	< 1000
Cc1nc(-c2cn3c(n2)-c2ccc(C(F)F)cc2OCC3)n(C(C)C)n1	< 1000
Cc1nc(-c2cn3c(n2)-c2ccc(-c4cncc(F)c4)cc2OCC3)n(C(C)C)n1	< 1000
CC(C)n1ncnc1-c1cn2c(n1)-c1cc(C(=O)N3CCC(C(C)(C)O)CC3)ccc1OCC2	< 1000
CC(C)(O)CN1CCC(c2ccc3c(c2)-c2nn(-c4ncnn4-c4ccc(F)cc4F)cc2CCO3)CC1	< 1000
Cc1nc(-c2cn3c(n2)-c2ccc(C#N)cc2OCC3)n(C(C)C)n1	< 1000
CNC(=O)[C@@H]1CCCN1c1cc2c(cn1)-c1nc(-c3ncnn3C(C)C)cn1CCO2	< 1000
Cc1nc(-c2cn3c(n2)-c2cc(F)c(F)cc2OCC3)n(C(C)C)n1	< 1000
